Data as given in US20190231785A1, “PHOSPHODIESTERASE INHIBITOR TREATMENT” (Cyrano Therapeutics, Inc., priority 2012, published 2019).

Legend:
[1] = system: patients with hyposmia and hypogeusia; conditions: oral 200 to 800 mg/d
Description: Smell and taste functions under each study condition were measured by standardized psychophysical sensory testing techniques. Measurements included determination of detection thresholds (DTs), recognition thresholds (RTs), magnitude estimation (ME), and hedonic response (HR) for 4 odors (e.g., pyridine [dead fish], nitrobenzene [bitter almond], thiophene [petroleum], and amyl acetate [banana oil]) (olfactometry) and for 4 tastants (e.g., sodium chloride [salt], sucrose [sweet], hydrochloride [sour], and urea [bitter]) (gustometry). […] Each measurement was performed independent of any prior knowledge of response.
Values for the oral trial were taken from the last measurements made before discontinuation of oral drug treatment and before initiation of the intranasal trial. This period varied from 2 to 12 months after oral treatment initiation and reflected the maximal improvement in sensory function each patient experienced.
The mean and standard error of the mean for all values obtained at each study condition were compared. Differences were considered significant if P<0.05 by the unpaired t test. Paired comparison tests were also used with differences considered significant if P<0.05 by the t test.

patients with hyposmia = assay: Side effects of oral theophylline (Example 1); assay type: in vivo, human; conditions: divided doses in middle of meals
Description: Patients were required to take the drug in divided doses in middle of meals (breakfast and lunch).

## Cn1c(=O)c2[nH]cnc2n(C)c1=O [theophylline]
[1]
  hypogeusia (gustometry overall): improved after 2 to 12 months of treatment
[1]; 2 to 12 months
  DTs for sucrose and hydrochloride and RTs for sodium chloride, hydrochloride and urea: decreased (more sensitive)
  HR for hydrochloride and urea: increased (more unpleasant)
  magnitude estimations for all tastants: increased (more sensitive)
Patients with hyposmia
  side effects among patients: generally minimal
